According to ChEMBL document CHEMBL1141234, “Synthesis and SAR of highly potent dual 5-HT1A and 5-HT1B antagonists as potential antidepressant drugs” (Bioorg Med Chem Lett, 2005):

How the values were obtained:
[1] = biological target: T1, 5-hydroxytryptamine receptor 1B (Homo sapiens, UniProt P28222); experiment: Inhibitory activity against human recombinant 5HT1B receptor co-expressed with G-protein chimera Gqo5 in HEK293 cells by FLIPR; format: functional, cell-based
[2] = biological target: T2, 5-hydroxytryptamine receptor 1A (Homo sapiens) (UniProt P08908); experiment: Functional activity in [35S]GTP-gamma-S assay for 5HT1A receptor
T2 sequence (whole entry): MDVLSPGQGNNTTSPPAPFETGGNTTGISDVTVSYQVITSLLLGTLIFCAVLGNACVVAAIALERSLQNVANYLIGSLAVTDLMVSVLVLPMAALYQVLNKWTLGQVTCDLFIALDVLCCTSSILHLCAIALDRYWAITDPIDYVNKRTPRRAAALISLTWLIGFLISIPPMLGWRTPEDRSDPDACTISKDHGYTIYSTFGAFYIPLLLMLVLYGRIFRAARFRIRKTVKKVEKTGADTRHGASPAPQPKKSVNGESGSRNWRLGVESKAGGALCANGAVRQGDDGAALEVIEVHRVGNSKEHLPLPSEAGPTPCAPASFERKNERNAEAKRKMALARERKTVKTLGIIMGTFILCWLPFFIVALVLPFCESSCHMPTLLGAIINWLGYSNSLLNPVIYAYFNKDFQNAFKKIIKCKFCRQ

[3] = biological target: T2, 5-hydroxytryptamine receptor 1A (Homo sapiens); experiment: Intrinsic activity for 5HT1A receptor in [35S]GTP-gamma-S assay; format: functional
[4] = biological target: T3, Adrenergic receptor alpha-1 (Homo sapiens, UniProt P35348+P25100+P35368); experiment: Inhibitory activity against Adrenergic alpha-1 receptor; format: protein assay
T3 sequence (P35348 whole entry): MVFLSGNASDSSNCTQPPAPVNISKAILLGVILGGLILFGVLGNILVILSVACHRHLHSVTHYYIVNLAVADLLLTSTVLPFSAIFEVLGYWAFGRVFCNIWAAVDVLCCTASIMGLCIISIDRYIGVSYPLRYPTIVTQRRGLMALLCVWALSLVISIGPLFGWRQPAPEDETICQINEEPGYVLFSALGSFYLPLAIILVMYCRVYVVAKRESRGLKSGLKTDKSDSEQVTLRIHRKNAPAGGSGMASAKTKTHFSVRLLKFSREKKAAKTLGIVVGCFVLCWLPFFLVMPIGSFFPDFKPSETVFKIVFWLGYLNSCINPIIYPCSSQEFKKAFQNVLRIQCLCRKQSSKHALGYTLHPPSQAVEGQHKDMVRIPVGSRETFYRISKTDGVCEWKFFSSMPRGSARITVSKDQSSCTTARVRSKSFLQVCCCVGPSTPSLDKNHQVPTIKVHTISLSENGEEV
T3 sequence (P25100 whole entry): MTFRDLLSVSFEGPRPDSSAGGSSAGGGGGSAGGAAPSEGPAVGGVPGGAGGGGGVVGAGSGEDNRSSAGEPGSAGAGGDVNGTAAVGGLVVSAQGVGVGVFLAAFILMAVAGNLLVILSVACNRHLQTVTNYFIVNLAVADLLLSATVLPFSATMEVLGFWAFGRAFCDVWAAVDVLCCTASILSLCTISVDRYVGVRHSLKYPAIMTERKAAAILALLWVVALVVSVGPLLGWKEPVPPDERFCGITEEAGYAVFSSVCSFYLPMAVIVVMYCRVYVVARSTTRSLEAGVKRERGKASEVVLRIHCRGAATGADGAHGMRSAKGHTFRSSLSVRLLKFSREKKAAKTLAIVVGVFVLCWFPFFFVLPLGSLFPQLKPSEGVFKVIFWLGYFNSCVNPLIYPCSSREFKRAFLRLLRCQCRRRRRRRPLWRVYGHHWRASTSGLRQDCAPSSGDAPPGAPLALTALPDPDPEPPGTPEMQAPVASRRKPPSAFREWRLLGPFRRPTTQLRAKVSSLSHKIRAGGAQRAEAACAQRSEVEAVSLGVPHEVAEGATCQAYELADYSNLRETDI
T3 sequence (P35368 whole entry): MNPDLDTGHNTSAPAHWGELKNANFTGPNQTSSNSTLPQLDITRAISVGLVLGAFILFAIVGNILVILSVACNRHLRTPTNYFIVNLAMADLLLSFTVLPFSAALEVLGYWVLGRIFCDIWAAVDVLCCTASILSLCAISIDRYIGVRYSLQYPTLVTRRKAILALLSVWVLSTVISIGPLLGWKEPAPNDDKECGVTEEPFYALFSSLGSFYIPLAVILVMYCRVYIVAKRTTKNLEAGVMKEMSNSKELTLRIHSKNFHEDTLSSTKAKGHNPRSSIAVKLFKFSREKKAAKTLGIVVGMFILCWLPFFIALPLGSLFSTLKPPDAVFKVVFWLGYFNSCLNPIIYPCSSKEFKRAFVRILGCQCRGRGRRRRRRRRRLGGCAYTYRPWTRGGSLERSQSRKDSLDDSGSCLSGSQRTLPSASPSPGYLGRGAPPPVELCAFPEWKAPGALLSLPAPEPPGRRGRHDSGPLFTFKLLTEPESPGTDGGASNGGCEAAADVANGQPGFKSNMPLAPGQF

[5] = biological target: T1, 5-hydroxytryptamine receptor 1B; experiment: Intrinsic activity for 5HT1B receptor in FLIPR assay; format: functional
[6] = biological target: T4, 5-hydroxytryptamine receptor 1A (Homo sapiens, UniProt P08908); experiment: Displacement of [35S]GTP-gamma-S from human recombinant 5HT1A receptor; format: functional
T4 sequence (P08908 whole entry): T2 sequence (whole entry)

[7] = biological target: T1, 5-hydroxytryptamine receptor 1B; experiment: Functional activity in FLIPR assay for 5HT1B receptor

T1 sequence (P28222 whole entry): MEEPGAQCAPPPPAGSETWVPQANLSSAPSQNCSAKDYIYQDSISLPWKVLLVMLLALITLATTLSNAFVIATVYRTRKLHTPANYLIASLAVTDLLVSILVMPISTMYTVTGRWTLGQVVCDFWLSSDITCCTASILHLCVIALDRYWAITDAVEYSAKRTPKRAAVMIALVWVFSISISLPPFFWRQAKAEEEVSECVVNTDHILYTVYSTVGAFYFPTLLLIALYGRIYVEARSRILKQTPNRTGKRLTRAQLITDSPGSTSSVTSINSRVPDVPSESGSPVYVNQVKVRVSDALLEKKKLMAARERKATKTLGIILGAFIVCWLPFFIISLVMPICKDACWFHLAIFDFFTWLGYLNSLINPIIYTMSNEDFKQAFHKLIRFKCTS

SMILES | Ki [1] [nM] | Activity ([2]; filed as partial agonist) | Emax [3] [%] | Ki [4] [nM] | Emax [5] [%] | Ki [6] [nM] | Activity ([7]; filed as antagonist) | Activity ([2]; filed as agonist) | Activity ([7]; filed as partial agonist) | Activity ([2]; filed as antagonist) | Activity ([7]; filed as agonist)
COc1cc(Cl)c(Cl)cc1N1CCN(CCn2cnc3sc4c(c3c2=O)CCN(C)C4)CC1 | 4.9 | Partial agonist | 10 | 0.2 | < 20 | 2.5 | Antagonist | – | – | – | –
COc1c(Cl)cc(Cl)cc1N1CCN(CCn2cnc3sc4c(c3c2=O)CCN(C)C4)CC1 | 3.8 | – | > 70 | 14.8 | 20 | 25.8 | – | Agonist | Partial agonist | – | –
CN1CCc2c(sc3ncn(CCN4CCN(c5cccc6ccsc56)CC4)c(=O)c23)C1 | 0.4 | Partial agonist | 10 | 0.5 | < 20 | 0.4 | Antagonist | – | – | – | –
COc1cc(Cl)ccc1N1CCN(CCn2cnc3sc4c(c3c2=O)CCN(C)C4)CC1 | 3.3 | Partial agonist | 10 | 0.5 | < 20 | 18.8 | Antagonist | – | – | – | –
CN1CCc2c(sc3ncn(CCN4CCN(c5ccccc5OCc5ccccc5)CC4)c(=O)c23)C1 | 1.2 | Partial agonist | 10 | 4 | 20 | 1.9 | – | – | Partial agonist | – | –
COc1ccc(OC)c(N2CCN(CCn3cnc4sc5c(c4c3=O)CCN(C)C5)CC2)c1 | 50.2 | – | < 10 | 8.4 | < 20 | 24.2 | Antagonist | – | – | Antagonist | –
CN1CCc2c(sc3ncn(CCN4CCN(c5ncnc6ccccc56)CC4)c(=O)c23)C1 | 320 | – | < 10 | 6780 | > 80 | 93.4 | – | – | – | Antagonist | Agonist
COc1ccc(C(F)(F)F)cc1N1CCN(CCn2cnc3sc4c(c3c2=O)CCN(C)C4)CC1 | 42.3 | – | – | 18 | – | 104 | – | – | – | – | –
COc1c(Cl)cccc1N1CCN(CCn2cnc3sc4c(c3c2=O)CCN(C)C4)CC1 | 0.5 | Partial agonist | 10 | 7 | 20 | 2.5 | – | – | Partial agonist | – | –
CN1CCc2c(sc3ncn(CCN4CCN(c5cccc6cccnc56)CC4)c(=O)c23)C1 | 0.3 | Partial agonist | 10 | 1.2 | 20 | 0.2 | – | – | Partial agonist | – | –
CC(C)Oc1ccccc1N1CCN(CCn2cnc3sc4c(c3c2=O)CCN(C)C4)CC1 | 2.5 | Partial agonist | 10 | 0.1 | < 20 | 0.7 | Antagonist | – | – | – | –
CN1CCc2c(sc3ncn(CCN4CCN(c5cccc6ncccc56)CC4)c(=O)c23)C1 | 1.7 | – | < 10 | 26.7 | 20 | 1.5 | – | – | Partial agonist | Antagonist | –
COc1ccc(-c2ccccc2)cc1N1CCN(CCn2cnc3sc4c(c3c2=O)CCN(C)C4)CC1 | 116 | – | – | 0.1 | – | 429 | – | – | – | – | –
